Assay results as given in patent US12565494B2, “Inhibitors of human respiratory syncytial virus and metapneumovirus” (priority 2022, dated 2026).

Tests used:
[1] = tested on: RSV-A2-GFP virus; assay: microbe, parasite or virus in culture; assay type: cell-based, Human Respiratory Syncytial Virus; conditions: Table I Summary of Activities for RSV; Calu-1 cells, RSV-A2-GFP MOI=1.2, 96 hrs, GFP-expressing cells counted; read-out: RSV EC50
Experimental: To set up the assay, ARF vials were thawed in a 37° C. water bath and a control compound was resuspended in assay media DMEM (Dulbecco's Modified Eagle Medium) containing 2% FBS, 100 U/ml Penicillin-Streptomycin.
GFP sequence was derived from pJTI™ R4 Dest CMV N-EmGFP pA Vector (Invitrogen) and was cloned into the intergenic sequence between wild-type RSV-A2 P and M genes using standard recombineering techniques. Recombinant RSV-A2-GFP was propagated in Hep2 cells (human cells contain HeLa marker chromosomes and were derived via HeLa contamination, ATCC CCL-23) with a Multiplicity of Infection (MOI) of 0.1. Virus was harvested 3 days after infection by collecting all culture material and then freeze-thawing the mixture for 5 minutes. Working virus stocks were generated by thawing frozen viral cultures in 37° C. water bath, which were centrifuged at 218 g for 15 min at 4° C. 1/10 of 10×SPG (Biological Industries 06-3061-01-5A) were added and then mixed. The supernatant was aliquoted, frozen in liquid nitrogen, and then transferred to a −80° C. freezer for storage. Virus titer was determined by automated plaque assay in HEp-2 cells following methods described previously (Wen Z. et al.; 2019).
Calu-1 cells were purchased from ATCC (Cat #HTB-54) and were expanded in growth media (DMEM containing 10% FBS, 100 U/ml Penicillin-Streptomycin). To make ARF, cell culture media was removed and discarded and the cell layer was briefly rinsed with PBS to remove serum. 2.5 mL of TrypLE Express solution were added and cells incubated until dislodged, to which growth media was added and the cells were resuspended by gentle pipetting. Cells were counted for concentration and viability as determined by ViCell. Cells were centrifuged at RT, 300 g for 5 minutes to pellet cells. The supernatant was gently aspirated and the pellet was flicked to loosen cells. Cells were resuspended in an appropriate volume of freezing medium (DMEM containing 10% DMSO, 10% FBS, 100 U/ml Penicillin-Streptomycin) to achieve a concentration of 5×10^6 cells/mL. 1 mL aliquots of the cell suspension were transferred to freezing vials. The vials were put into an upright container in a −80° C. freezer overnight before transferring vials to liquid nitrogen for storage
Assay ready freeze-down (ARF, generation described separately) Calu-1 cells (ATCC HTB-54) were used. Compound plates were prepared by dispensing compounds dissolved in DMSO into the wells of a 384 well Corning® 3985 plate with an ECHO acoustic dispenser and compounds were tested in 10-point serial 3-fold dilution. […] To set up the assay, ARF vial(s) were thawed in a 37° C. water bath and were then resuspended into assay media (DMEM containing 2% FBS, 100 U/ml Penicillin-Streptomycin). Cells were counted using default parameters on ViCell and diluted to 20,000 cells/mL in assay media. RSV-A2-GFP virus was added to cells at 24,000 pfu/ml (MOI=1.2) and mixed by gentle inversion. 10 μL/well of 100% DMSO was dispensed as CellTiter-Glo (CTG) assay Max_E controls wells. The cells were dispensed at 50 μL/well using Bravo with 50 μL filtered tips into compound plates. Plates were covered with MicroClime lids, loaded with 7.5 mL of assay media to minimize evaporation, and were incubated at 37° C. and 5% CO2 for 96 hrs. Following incubation, distinct, GFP-expressing cells were counted using an Acumen imaging system with appropriate settings. A same-well CTG assay was performed by adding 10 μL/well reconstituted CellTiter-Glo reagent (Promega G7573) and plates were read on PerkinElmer Envision according to manufacturer's instructions. Raw data were loaded and analyzed in ActivityBase. Antiviral IC50 and cytotoxicity CC50 values were determined using a 4 parameter logistic fit based on the Levenberg-Marquardt algorithm. Model: 205-4 Parameter Logistic.

[2] = tested on: hMPV-GFP virus; assay: microbe, parasite or virus in culture; assay type: cell-based, Human Metapneumovirus; conditions: Table II Summary of Activities for hMPV; VERO cells, hMPV-GFP MOI=1.25, 48 hrs, GFP-expressing cells counted; read-out: RSV EC50
Experimental: GFP expressing rgHMPV #3 p3 was generated in Dr. Buchholz's lab (Biacchesi S. et al., J Virol. 2007 June; 81(11): 6057-6067) and propagated in VERO cells (ATCC Cat #CCL-81) with a Multiplicity of Infection (MOI) of 0.1. Virus was harvested 4 days after infection by collecting cultured material and was freeze-thaw cycled in liquid nitrogen twice. Working virus stocks were generated from thawing frozen samples in 37° C. water bath, which were centrifuged at 218 g for 15 min at 4° C. 1/10 of 10×SPG (Biological Industries 06-3061-01-5A) were added and then mixed. The supernatant was aliquoted, frozen in liquid nitrogen, and then transferred to a −80° C. freezer for storage. Virus titer was determined by performing titration test in 96-well plates and calculate approximate virus titer using GFP event/well data.
Compound plates were prepared by dispensing compounds dissolved in DMSO into wells of a 384 well Corning 3985 polystyrene flat clear bottom optical imaging microplate (202.5 nL/well) using an ECHO acoustic dispenser. Each compound was tested in 10-point serial 3-fold dilution (typical final concentrations: 40,300 nM-2 nM). […] Continuous culture of VERO cells was maintained in complete culture media (OptiMEM supplemented with 2 mM GlutaMAX™ and 100 U/ml Penicillin-Streptomycin). To set up the assay, VERO cells were trypsinized with 0.25% Trypsin-EDTA until cells were dislodged, then cells were re-suspended with 1 mL FBS. Cells were spundown at 300 g for 5 minutes and cells were washed twice with culture media and counted using default parameters on ViCell. Cells were then diluted to 100,000 cells/mL (5,000 cells/50 μL) in complete culture media+TrypLE Select (80 μL/mL). hMPV-GFP virus was added to cells at 125,000 pfu/mL (MOI=1.25) and were mixed by gentle inversion. 10 μL/well of 100% DMSO was dispensed to CellTiter-Glo (CTG) assay Max_E controls wells. Cells were dispensed at 50 μL/well using Bravo and 50 μL filtered tips into compound plates. Plates were covered with MicroClime lids and loaded with 7.5 mL of assay media to minimize evaporation. Plates were lightly shaken for 10 minutes at room temperature and then incubated at 37° C. and 5% CO2 for 48 hrs. Following incubation, distinct GFP-expressing cells were counted using an Acumen imaging system with appropriate settings. A same-well CTG assay was performed by adding 10 μL/well reconstituted CellTiter-Glo reagent (Promega G7573) and plates were read on PerkinElmer Envision according to manufacturer's instructions. Raw data were loaded and analyzed in ActivityBase. Antiviral IC50 and cytotoxicity CC50 values were determined using a 4 parameter logistic fit based on the Levenberg-Marquardt algorithm. Model: 205-4 Parameter Logistic.

SMILES	EC50 [1] [nM]	EC50 [2] [nM]
Cc1nc(-c2ccon2)sc1C(=O)N1C[C@@H]2[C@H](C1)[C@H]2Oc1cc(C(C)(C)N)cc(-c2ccc(F)cc2)n1 [Example 5, ((1R,5S,6s)-6-((4-(2-aminopropan-2-yl)-6-(4-fluorophenyl)pyridin-2-yl)oxy)-3-azabicyclo[3.1.0]hexan-3-yl)(2-(isoxazol-3-yl)-4-methylthiazol-5-yl)methanone]	< 10	10 to 100
Cc1nc(-c2nccs2)sc1C(=O)N1C[C@@H]2[C@H](C1)[C@H]2Oc1cc(C(C)(C)N)cc(-c2ccc(F)cc2)n1 [Example 6, ((1R,5S,6s)-6-((4-(2-aminopropan-2-yl)-6-(4-fluorophenyl)pyridin-2-yl)oxy)-3-azabicyclo[3.1.0]hexan-3-yl)(4-methyl-[2,2′-bithiazol]-5-yl)methanone]	< 10	> 100
Cc1nc(-c2cscn2)sc1C(=O)N1C[C@@H]2[C@H](C1)[C@H]2Oc1cc(C(C)(C)N)cc(-c2ccc(F)cc2)n1 [Example 7, ((1R,5S,6s)-6-((4-(2-aminopropan-2-yl)-6-(4-fluorophenyl)pyridin-2-yl)oxy)-3-azabicyclo[3.1.0]hexan-3-yl)(4-methyl-[2,4′-bithiazol]-5-yl)methanone]	< 10	10 to 100
CC(C)(N)c1cc(O[C@H]2[C@@H]3CN(C(=O)c4sc(-c5cscn5)nc4C4CC4)C[C@@H]32)nc(-c2ccc(F)cc2)c1 [Example 8, ((1R,5S,6s)-6-((4-(2-aminopropan-2-yl)-6-(4-fluorophenyl)pyridin-2-yl)oxy)-3-azabicyclo[3.1.0]hexan-3-yl)(4-cyclopropyl-[2,4′-bithiazol]-5-yl)methanone]	< 10	10 to 100
Cc1nc(-c2ncc[nH]2)sc1C(=O)N1C[C@@H]2[C@H](C1)[C@H]2Oc1cc(C(C)(C)N)cc(-c2ccc(F)cc2)n1 [Example 9, (2-(1H-imidazol-2-yl)-4-methylthiazol-5-yl)((1R,5S,6s)-6-((4-(2-aminopropan-2-yl)-6-(4-fluorophenyl)pyridin-2-yl)oxy)-3-azabicyclo[3.1.0]hexan-3-yl)methanone]	< 10	> 100
Cc1nc(-c2ncn[nH]2)sc1C(=O)N1C[C@@H]2[C@H](C1)[C@H]2Oc1cc(C(C)(C)N)cc(-c2ccc(F)cc2)n1 [Example 10, ((1R,5S,6s)-6-((4-(2-aminopropan-2-yl)-6-(4-fluorophenyl)pyridin-2-yl)oxy)-3-azabicyclo[3.1.0]hexan-3-yl)(4-methyl-2-(1H-1,2,4-triazol-5-yl)thiazol-5-yl)methanone]	< 10	> 100
CCc1nc(-c2nc[nH]n2)sc1C(=O)N1C[C@@H]2[C@H](C1)[C@H]2Oc1cc(C(C)(C)N)cc(-c2ccc(F)cc2)n1 [Example 11, ((1R,5S,6s)-6-((4-(2-aminopropan-2-yl)-6-(4-fluorophenyl)pyridin-2-yl)oxy)-3-azabicyclo[3.1.0]hexan-3-yl)(4-ethyl-2-(1H-1,2,4-triazol-3-yl)thiazol-5-yl)methanone]	< 10	> 100
Cc1nc(-c2cccs2)sc1C(=O)N1C[C@@H]2[C@H](C1)[C@H]2Oc1cc(C(C)(C)N)cc(-c2ccc(F)cc2)n1 [Example 12, ((1R,5S,6s)-6-((4-(2-aminopropan-2-yl)-6-(4-fluorophenyl)pyridin-2-yl)oxy)-3-azabicyclo[3.1.0]hexan-3-yl)(4-methyl-2-(thiophen-2-yl)thiazol-5-yl)methanone]	< 10	> 100
Cc1nc(-c2ccco2)sc1C(=O)N1C[C@@H]2[C@H](C1)[C@H]2Oc1cc(C(C)(C)N)cc(-c2ccc(F)cc2)n1 [Example 13, ((1R,5S,6s)-6-((4-(2-aminopropan-2-yl)-6-(4-fluorophenyl)pyridin-2-yl)oxy)-3-azabicyclo[3.1.0]hexan-3-yl)(2-(furan-2-yl)-4-methylthiazol-5-yl)methanone]	< 10	10 to 100
